Assay results reported in the NIST ThermoML archive (doi:10.1021/je100832h).

Assays:
[1] = xn = mol fraction of the nth substance listed; conditions: 101.32 kPa, Liquid, Vibrating tube method
[2] = excess molar enthalpy (molar enthalpy of mixing); xn = mol fraction of the nth substance listed; conditions: 101 kPa, Liquid, Calvet calorimetry

CCOC(C)=O [ethyl acetate] + CCCCCC
Conditions | excess molar enthalpy [kcal/mol] | mass density [kg/m3]
[1], 291.15 K, x1 = 0.0165 | – | 663.7
[1], 291.15 K, x1 = 0.0655 | – | 671.62
[1], 291.15 K, x1 = 0.1077 | – | 678.72
[1], 291.15 K, x1 = 0.1823 | – | 692.02
[1], 291.15 K, x1 = 0.1962 | – | 694.54
[1], 291.15 K, x1 = 0.2716 | – | 709.09
[1], 291.15 K, x1 = 0.3518 | – | 725.37
[1], 291.15 K, x1 = 0.4166 | – | 739.37
[1], 291.15 K, x1 = 0.5519 | – | 770.91
[1], 291.15 K, x1 = 0.6225 | – | 788.69
[1], 291.15 K, x1 = 0.6795 | – | 803.74
[1], 291.15 K, x1 = 0.7429 | – | 821.35
[1], 291.15 K, x1 = 0.8048 | – | 839.41
[1], 291.15 K, x1 = 0.898 | – | 868.3
[1], 291.15 K, x1 = 0.9604 | – | 888.98
[1], 291.15 K, x1 = 0.9833 | – | 896.93
[1], 291.15 K, x1 = 1 | – | 902.88
[1], 298.15 K, x1 = 0.0704 | – | 666.2
[1], 298.15 K, x1 = 0.127 | – | 675.7
[1], 298.15 K, x1 = 0.193 | – | 687.4
[1], 298.15 K, x1 = 0.2383 | – | 695.9
[1], 298.15 K, x1 = 0.2909 | – | 706.1
[1], 298.15 K, x1 = 0.3466 | – | 717.4
[1], 298.15 K, x1 = 0.444 | – | 738.3
[1], 298.15 K, x1 = 0.4935 | – | 749.5
[1], 298.15 K, x1 = 0.5355 | – | 759.4
[1], 298.15 K, x1 = 0.5869 | – | 772
[1], 298.15 K, x1 = 0.6255 | – | 781.8
[1], 298.15 K, x1 = 0.7012 | – | 801.9
[1], 298.15 K, x1 = 0.7532 | – | 816.4
[1], 298.15 K, x1 = 0.8292 | – | 838.8
[1], 298.15 K, x1 = 0.8612 | – | 848.7
[1], 298.15 K, x1 = 0.9233 | – | 868.5
[1], 298.15 K, x1 = 0.9469 | – | 876.3
[1], 298.15 K, x1 = 1 | – | 894.4
[1], 318.15 K, x1 = 0.0336 | – | 641.5
[1], 318.15 K, x1 = 0.0764 | – | 648.1
[1], 318.15 K, x1 = 0.1448 | – | 659.3
[1], 318.15 K, x1 = 0.2606 | – | 679.9
[1], 318.15 K, x1 = 0.276 | – | 682.8
[1], 318.15 K, x1 = 0.3316 | – | 693.5
[1], 318.15 K, x1 = 0.3976 | – | 707
[1], 318.15 K, x1 = 0.4495 | – | 718.1
[1], 318.15 K, x1 = 0.5054 | – | 730.6
[1], 318.15 K, x1 = 0.5551 | – | 742.2
[1], 318.15 K, x1 = 0.6085 | – | 755.1
[1], 318.15 K, x1 = 0.7048 | – | 779.9
[1], 318.15 K, x1 = 0.7523 | – | 792.9
[1], 318.15 K, x1 = 0.7984 | – | 806
[1], 318.15 K, x1 = 0.8419 | – | 818.8
[1], 318.15 K, x1 = 0.8854 | – | 832.2
[1], 318.15 K, x1 = 0.9305 | – | 846.4
[1], 318.15 K, x1 = 1 | – | 869.6
[1], 328.15 K, x1 = 0.0433 | – | 633.2
[1], 328.15 K, x1 = 0.0847 | – | 639.6
[1], 328.15 K, x1 = 0.1691 | – | 653.4
[1], 328.15 K, x1 = 0.2349 | – | 664.88
[1], 328.15 K, x1 = 0.307 | – | 678
[1], 328.15 K, x1 = 0.3708 | – | 690.6
[1], 328.15 K, x1 = 0.4318 | – | 703.25
[1], 328.15 K, x1 = 0.4918 | – | 716.3
[1], 328.15 K, x1 = 0.5567 | – | 731.2
[1], 328.15 K, x1 = 0.6075 | – | 743.4
[1], 328.15 K, x1 = 0.6523 | – | 754.6
[1], 328.15 K, x1 = 0.7238 | – | 773.4
[1], 328.15 K, x1 = 0.7577 | – | 782.7
[1], 328.15 K, x1 = 0.8221 | – | 800.9
[1], 328.15 K, x1 = 0.8723 | – | 815.8
[1], 328.15 K, x1 = 0.9135 | – | 828.6
[1], 328.15 K, x1 = 0.9832 | – | 851.3
[1], 328.15 K, x1 = 1 | – | 857.17
[2], 291.15 K, x1 = 0.0535 | 0.0674 | –
[2], 291.15 K, x1 = 0.1148 | 0.139 | –
[2], 291.15 K, x1 = 0.1974 | 0.215 | –
[2], 291.15 K, x1 = 0.2736 | 0.275 | –
[2], 291.15 K, x1 = 0.3368 | 0.309 | –
[2], 291.15 K, x1 = 0.3855 | 0.33 | –
[2], 291.15 K, x1 = 0.4401 | 0.344 | –
[2], 291.15 K, x1 = 0.4918 | 0.348 | –
[2], 291.15 K, x1 = 0.5333 | 0.345 | –
[2], 291.15 K, x1 = 0.5714 | 0.341 | –
[2], 291.15 K, x1 = 0.6212 | 0.329 | –
[2], 291.15 K, x1 = 0.6753 | 0.309 | –
[2], 291.15 K, x1 = 0.722 | 0.282 | –
[2], 291.15 K, x1 = 0.7805 | 0.247 | –
[2], 291.15 K, x1 = 0.8412 | 0.199 | –
[2], 291.15 K, x1 = 0.8816 | 0.153 | –
[2], 291.15 K, x1 = 0.9343 | 0.0937 | –
[2], 291.15 K, x1 = 0.9802 | 0.0349 | –
[2], 298.15 K, x1 = 0.0668 | 0.0865 | –
[2], 298.15 K, x1 = 0.1168 | 0.137 | –
[2], 298.15 K, x1 = 0.192 | 0.21 | –
[2], 298.15 K, x1 = 0.2621 | 0.261 | –
[2], 298.15 K, x1 = 0.3186 | 0.289 | –
[2], 298.15 K, x1 = 0.3929 | 0.319 | –
[2], 298.15 K, x1 = 0.439 | 0.329 | –
[2], 298.15 K, x1 = 0.495 | 0.326 | –
[2], 298.15 K, x1 = 0.5309 | 0.324 | –
[2], 298.15 K, x1 = 0.5767 | 0.315 | –
[2], 298.15 K, x1 = 0.6196 | 0.304 | –
[2], 298.15 K, x1 = 0.6757 | 0.286 | –
[2], 298.15 K, x1 = 0.7368 | 0.255 | –
[2], 298.15 K, x1 = 0.7954 | 0.215 | –
[2], 298.15 K, x1 = 0.8424 | 0.17 | –
[2], 298.15 K, x1 = 0.8998 | 0.117 | –
[2], 298.15 K, x1 = 0.9521 | 0.0605 | –
[2], 318.15 K, x1 = 0.076 | 0.11 | –
[2], 318.15 K, x1 = 0.1524 | 0.195 | –
[2], 318.15 K, x1 = 0.2306 | 0.259 | –
[2], 318.15 K, x1 = 0.3029 | 0.3 | –
[2], 318.15 K, x1 = 0.3659 | 0.325 | –
[2], 318.15 K, x1 = 0.4345 | 0.339 | –
[2], 318.15 K, x1 = 0.488 | 0.338 | –
[2], 318.15 K, x1 = 0.5143 | 0.335 | –
[2], 318.15 K, x1 = 0.5368 | 0.333 | –
[2], 318.15 K, x1 = 0.5617 | 0.331 | –
[2], 318.15 K, x1 = 0.6098 | 0.32 | –
[2], 318.15 K, x1 = 0.6645 | 0.301 | –
[2], 318.15 K, x1 = 0.7202 | 0.273 | –
[2], 318.15 K, x1 = 0.7788 | 0.235 | –
[2], 318.15 K, x1 = 0.8406 | 0.184 | –
[2], 318.15 K, x1 = 0.9004 | 0.125 | –
[2], 318.15 K, x1 = 0.9547 | 0.0638 | –
